Common to all, as to format: functional, cell-based
Assay [1] concerns SMMC-7721. The experiment in a line: Cytotoxicity against human SMMC7721 cells assessed as decrease in cell viability after 4 days by MTT assay. Particulars: SMMC-7721, 96 h.
Assay [2] concerns SW480. The experiment in a line: Cytotoxicity against human SW480 cells assessed as decrease in cell viability after 4 days by MTT assay. Particulars: SW480, 96 h.
The test system of assay [3] is A549. The experiment in a line: Cytotoxicity against human A549 cells assessed as decrease in cell viability after 4 days by MTT assay. Particulars: A549, 96 h.
Assay [4] has as its system MCF7. Briefly: Cytotoxicity against human MCF7 cells assessed as decrease in cell viability after 4 days by MTT assay. Particulars: MCF7, 96 h.
In assay [5] the test system is HL-60. Briefly: Cytotoxicity against human HL60 cells assessed as decrease in cell viability after 4 days by MTT assay. Particulars: HL-60, 96 h.

Molecules are shown by their SMILES. Where only a bound is given, the exact number is not on record here.

Consider `C=C1C[C@]23C[C@@]1(O)CC[C@H]2c1ccc(OS(=O)(=O)c2ccc(C)cc2)c(C)c1[C@@H]3Cn1cc(-c2ccccn2)nn1`, for which the IC50 in assay [1], in assay [2], in assay [3], in assay [4] and in assay [5] was over 20 µM throughout.

Turning to `C=C1C[C@]23C[C@@]1(O)CC[C@@H]2c1cccc(C)c1[C@@H]3Cn1cc(-c2ccc(Cl)cc2)nn1`, the concentration for half-maximal inhibition (IC50) in assay [1], in assay [2], in assay [3], in assay [4] and in assay [5] was over 20 µM each time.

On to `Cc1ccc(S(=O)(=O)Oc2ccc3c(c2C)[C@H](Cn2cc(-c4ccc(Br)cc4)nn2)[C@@]24CC(=O)[C@@](C)(CC[C@@H]32)C4)cc1`, for which the half-maximal inhibitory concentration (IC50) in assay [1], in assay [2], in assay [3], in assay [4] and in assay [5] was over 20 µM each time.

In the case of `Cc1c(O)ccc2c1[C@H](Cn1cc(-c3ccc(F)cc3)nn1)[C@@]13CC(=O)[C@@](C)(CC[C@@H]21)C3`, the IC50 in assay [1], in assay [2], in assay [3], in assay [4] and in assay [5] was over 20 µM each time.

Regarding `C=C1C[C@]23C[C@@]1(O)CC[C@H]2c1cc(Br)c(O)c(C)c1[C@@H]3Cn1cc(-c2ccc(Cl)cc2)nn1`, the IC50 is 19.1 µM in assay [1]; 18 µM in assay [2]; 10.5 µM in assay [3]; 10.2 µM in assay [4]; 5.59 µM in assay [5].

In the case of `C=C1C[C@]23C[C@@]1(O)CC[C@@H]2c1cccc(C)c1[C@@H]3Cn1cc(-c2ccc(OC)cc2)nn1`, the half-maximal inhibitory concentration (IC50) in assay [1], in assay [2], in assay [3], in assay [4] and in assay [5] was over 20 µM each time.

For `Cc1c(O)ccc2c1[C@H](Cn1cc(-c3ccc(C(F)(F)F)cc3)nn1)[C@@]13CC(=O)[C@@](C)(CC[C@@H]21)C3`, the IC50 in assay [1], in assay [2], in assay [3], in assay [4] and in assay [5] was over 20 µM each time.

With `C=C1C[C@]23C[C@@]1(O)CC[C@H]2c1ccc(OS(=O)(=O)c2ccc(C)cc2)c(C)c1[C@@H]3Cn1cc(-c2ccc(C(F)(F)F)cc2)nn1`, the IC50 in assay [1], in assay [2], in assay [3], in assay [4] and in assay [5] was over 20 µM throughout.

Regarding `C=C1C[C@]23C[C@@]1(O)CC[C@H]2c1ccc(OS(=O)(=O)c2ccc(C)cc2)c(C)c1[C@@H]3Cn1cc(-c2ccc(C)cc2)nn1`, the IC50 in assay [1], in assay [2], in assay [3], in assay [4] and in assay [5] was over 20 µM in each case.

With `C=C1C[C@]23C[C@@]1(O)CC[C@H]2c1ccc(OS(=O)(=O)c2ccc(C)cc2)c(C)c1[C@@H]3Cn1cc(-c2ccc(Br)cc2)nn1`, the IC50 in assay [1], in assay [2], in assay [3], in assay [4] and in assay [5] was over 20 µM throughout.

Regarding `C=C1C[C@]23C[C@@]1(O)CC[C@@H]2c1cccc(C)c1[C@@H]3Cn1cc(-c2ccc(C)cc2)nn1`, the IC50 in assay [1], in assay [2], in assay [3], in assay [4] and in assay [5] was over 20 µM each time.

Turning to `C=C1C[C@]23C[C@@]1(O)CC[C@@H]2c1cccc(C)c1[C@@H]3Cn1cc(-c2ccc(Br)cc2)nn1`, the IC50 in assay [1], in assay [2], in assay [3], in assay [4] and in assay [5] was over 20 µM each time.

For `C=C1C[C@]23C[C@@]1(O)CC[C@@H]2c1cccc(C)c1[C@@H]3Cn1cc(-c2ccccc2)nn1`, the IC50 in assay [1], in assay [2], in assay [3], in assay [4] and in assay [5] was over 20 µM in each case.

For the origin of these results see ChEMBL document CHEMBL4219271, “Synthesis and anti-proliferative activity of allogibberic acid derivatives containing 1,2,3-triazole pharmacophore” (Bioorg Med Chem Lett, 2018).
